# In ChEMBL document CHEMBL1201862, “PubChem BioAssay data set” (2004):
#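 Exposure lasted 48 hours, with cells grown in 96-well plates and compounds tested at five concentrations. GI50 is the concentration that inhibits growth by half.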 Calls of active or inactive are those of the source. Rule as the data show it: active = GI50 up to about 1.1 µM and inactive = higher.
# Tests used:
# Assay in all cases: NCI anticancer screen, dose series, 48 h
# M19-MEL = tested on: M19-MEL
# SK-OV-3 = tested on: SK-OV-3
# UO-31 = tested on: UO-31
# RXF 393 = tested on: RXF 393
# NCI-H522 = tested on: NCI-H522
# OVCAR-5 = tested on: OVCAR-5
# OVCAR-3 = tested on: OVCAR-3
# HOP-62 = tested on: HOP-62
# EKVX = tested on: EKVX
# SW-620 = tested on: SW-620
# HOP-18 = tested on: HOP-18
# OVCAR-4 = tested on: OVCAR-4
# RXF 631 = tested on: RXF 631
# KM-20L2 = tested on: KM-20L2
# M14 = tested on: M14
# SK-MEL-2 = tested on: SK-MEL-2
# U-251 = tested on: U-251
# OVCAR-8 = tested on: OVCAR-8
# NCI-H226 = tested on: NCI-H226
# IGROV-1 = tested on: IGROV-1
# CCRF-CEM = tested on: CCRF-CEM
# HCC 2998 = tested on: HCC 2998
# UACC-257 = tested on: UACC-257
# SR = tested on: SR
# MOLT-4 = tested on: MOLT-4
# DMS-114 = tested on: DMS-114
# COLO 205 = tested on: COLO 205
# A549 = tested on: A549
# HCT-15 = tested on: HCT-15
# DLD-1 = tested on: DLD-1
# DMS-273 = tested on: DMS-273
# SF-295 = tested on: SF-295
# TK-10 = tested on: TK-10
# K562 = tested on: K562
# LOX IMVI = tested on: LOX IMVI
# KM12 = tested on: KM12
# SNB-78 = tested on: SNB-78
# SK-MEL-28 = tested on: SK-MEL-28
# ACHN = tested on: ACHN
# 786-0 = tested on: 786-0
# SF-268 = tested on: SF-268
# UACC-62 = tested on: UACC-62
# SF-539 = tested on: SF-539
# SNB-75 = tested on: SNB-75
# NCI-H460 = tested on: NCI-H460
# NCI-H23 = tested on: NCI-H23
# LXFL 529 = tested on: LXFL 529
# Malme-3M = tested on: Malme-3M
# SN12C = tested on: SN12C
# SNB-19 = tested on: SNB-19
# HT-29 = tested on: HT-29
# HCT-116 = tested on: HCT-116
# CAKI-1 = tested on: CAKI-1
# HL-60 = tested on: HL-60
# RPMI-8226 = tested on: RPMI-8226
# SK-MEL-5 = tested on: SK-MEL-5
# XF498 = tested on: XF498
# A498 = tested on: A498
# HOP-92 = tested on: HOP-92
structure (smiles),measurement,setting,value
Cc1ccc(Nc2nc(C)c(C(/C=C/c3ccc(/C=C/C(=N/NC(=O)C[n+]4ccccc4)c4sc(Nc5ccc(C)cc5[N+](=O)[O-])nc4C)cc3)=N\NC(=O)C[n+]3ccccc3)s2)c([N+](=O)[O-])c1,GI50,M19-MEL,> 100 µM (inactive)
same,GI50,SK-OV-3,> 100 µM (inactive)
same,GI50,UO-31,46.5 µM (inactive)
same,GI50,RXF 393,> 100 µM (inactive)
same,GI50,NCI-H522,> 100 µM (inactive)
same,GI50,OVCAR-5,50.8 µM (inactive)
same,GI50,OVCAR-3,> 100 µM (inactive)
same,GI50,HOP-62,> 100 µM (inactive)
same,GI50,EKVX,78.3 µM (inactive)
same,GI50,SW-620,> 100 µM (inactive)
same,GI50,HOP-18,7.96 µM (inactive)
same,GI50,OVCAR-4,> 100 µM (inactive)
same,GI50,RXF 631,> 100 µM (inactive)
same,GI50,KM-20L2,> 100 µM (inactive)
same,GI50,M14,> 100 µM (inactive)
same,GI50,SK-MEL-2,> 100 µM (inactive)
same,GI50,U-251,> 100 µM (inactive)
same,GI50,OVCAR-8,> 100 µM (inactive)
same,GI50,NCI-H226,14.6 µM (inactive)
same,GI50,IGROV-1,> 100 µM (inactive)
same,GI50,CCRF-CEM,32.3 µM (inactive)
same,GI50,HCC 2998,> 100 µM (inactive)
same,GI50,UACC-257,> 100 µM (inactive)
same,GI50,SR,67.3 µM (inactive)
same,GI50,MOLT-4,76.7 µM (inactive)
same,GI50,DMS-114,92.9 µM (inactive)
same,GI50,COLO 205,> 100 µM (inactive)
same,GI50,A549,> 100 µM (inactive)
same,GI50,HCT-15,88.1 µM
same,GI50,DLD-1,71.3 µM (inactive)
same,GI50,DMS-273,> 100 µM (inactive)
same,GI50,SF-295,> 100 µM (inactive)
same,GI50,TK-10,51.3 µM (inactive)
same,GI50,K562,81.3 µM (inactive)
same,GI50,LOX IMVI,73.3 µM (inactive)
same,GI50,KM12,> 100 µM (inactive)
same,GI50,SNB-78,91.2 µM (inactive)
same,GI50,SK-MEL-28,> 100 µM (inactive)
same,GI50,ACHN,82.8 µM (inactive)
same,GI50,786-0,> 100 µM (inactive)
same,GI50,SF-268,> 100 µM (inactive)
same,GI50,UACC-62,20.6 µM (inactive)
same,GI50,SF-539,89.1 µM (inactive)
same,GI50,SNB-75,33.5 µM (inactive)
same,GI50,NCI-H460,> 100 µM (inactive)
same,GI50,NCI-H23,> 100 µM (inactive)
same,GI50,LXFL 529,95.7 µM (inactive)
same,GI50,Malme-3M,> 100 µM (inactive)
same,GI50,SN12C,55.8 µM (inactive)
same,GI50,SNB-19,> 100 µM (inactive)
same,GI50,HT-29,> 100 µM (inactive)
same,GI50,HCT-116,> 100 µM (inactive)
same,GI50,CAKI-1,48.6 µM (inactive)
same,GI50,HL-60,27.4 µM (inactive)
CCCCN(C)CC(C(C)=O)C(c1ccccc1)c1c(O)c2ccccc2oc1=O (stereo not drawn),GI50,M19-MEL,> 100 µM (inactive)
same,GI50,SK-OV-3,> 100 µM (inactive)
same,GI50,UO-31,> 100 µM (inactive)
same,GI50,RPMI-8226,> 100 µM (inactive)
same,GI50,RXF 393,> 100 µM (inactive)
same,GI50,NCI-H522,> 100 µM (inactive)
same,GI50,OVCAR-5,> 100 µM (inactive)
same,GI50,OVCAR-3,> 100 µM (inactive)
same,GI50,HOP-62,> 100 µM (inactive)
same,GI50,EKVX,> 100 µM (inactive)
same,GI50,SW-620,> 100 µM (inactive)
same,GI50,HOP-18,> 100 µM (inactive)
same,GI50,OVCAR-4,> 100 µM (inactive)
same,GI50,KM-20L2,> 100 µM (inactive)
same,GI50,M14,> 100 µM (inactive)
same,GI50,SK-MEL-2,> 100 µM (inactive)
same,GI50,U-251,> 100 µM (inactive)
same,GI50,OVCAR-8,> 100 µM (inactive)
same,GI50,NCI-H226,> 100 µM (inactive)
same,GI50,IGROV-1,> 100 µM (inactive)
same,GI50,CCRF-CEM,> 100 µM (inactive)
same,GI50,UACC-257,> 100 µM (inactive)
same,GI50,SR,> 100 µM (inactive)
same,GI50,MOLT-4,> 100 µM (inactive)
same,GI50,DMS-114,> 100 µM (inactive)
same,GI50,COLO 205,> 100 µM (inactive)
same,GI50,A549,> 100 µM (inactive)
same,GI50,HCT-15,> 100 µM
same,GI50,DLD-1,> 100 µM (inactive)
same,GI50,DMS-273,> 100 µM (inactive)
same,GI50,SF-295,> 100 µM (inactive)
same,GI50,TK-10,> 100 µM (inactive)
same,GI50,K562,> 100 µM (inactive)
same,GI50,SK-MEL-5,> 100 µM (inactive)
same,GI50,LOX IMVI,> 100 µM (inactive)
same,GI50,KM12,> 100 µM (inactive)
same,GI50,SNB-78,> 100 µM (inactive)
same,GI50,SK-MEL-28,> 100 µM (inactive)
same,GI50,ACHN,> 100 µM (inactive)
same,GI50,786-0,> 100 µM (inactive)
same,GI50,SF-268,> 100 µM (inactive)
same,GI50,UACC-62,> 100 µM (inactive)
same,GI50,SF-539,> 100 µM (inactive)
same,GI50,SNB-75,65.2 µM (inactive)
same,GI50,NCI-H460,> 100 µM (inactive)
same,GI50,NCI-H23,62.2 µM (inactive)
same,GI50,LXFL 529,> 100 µM (inactive)
same,GI50,Malme-3M,> 100 µM (inactive)
same,GI50,SN12C,> 100 µM (inactive)
same,GI50,SNB-19,> 100 µM (inactive)
same,GI50,HT-29,> 100 µM (inactive)
same,GI50,XF498,> 100 µM (inactive)
same,GI50,HCT-116,> 100 µM (inactive)
same,GI50,CAKI-1,> 100 µM (inactive)
same,GI50,HL-60,> 100 µM (inactive)
same,GI50,A498,> 100 µM (inactive)
C[C@]12CCC[C@H](Cl)C1(O)C[C@H](C(=O)O)CC2 (stereo partly drawn),GI50,M19-MEL,> 100 µM (inactive)
same,GI50,SK-OV-3,> 100 µM (inactive)
same,GI50,UO-31,> 100 µM (inactive)
same,GI50,RPMI-8226,> 100 µM (inactive)
same,GI50,RXF 393,> 100 µM (inactive)
same,GI50,NCI-H522,> 100 µM (inactive)
same,GI50,OVCAR-5,> 100 µM (inactive)
same,GI50,OVCAR-3,> 100 µM (inactive)
same,GI50,HOP-62,> 100 µM (inactive)
same,GI50,EKVX,> 100 µM (inactive)
same,GI50,HOP-92,> 100 µM (inactive)
same,GI50,SW-620,> 100 µM (inactive)
same,GI50,HOP-18,> 100 µM (inactive)
same,GI50,OVCAR-4,> 100 µM (inactive)
same,GI50,KM-20L2,> 100 µM (inactive)
same,GI50,M14,> 100 µM (inactive)
same,GI50,SK-MEL-2,> 100 µM (inactive)
same,GI50,U-251,> 100 µM (inactive)
same,GI50,OVCAR-8,> 100 µM (inactive)
same,GI50,NCI-H226,> 100 µM (inactive)
same,GI50,IGROV-1,> 100 µM (inactive)
same,GI50,CCRF-CEM,> 100 µM (inactive)
same,GI50,HCC 2998,> 100 µM (inactive)
same,GI50,UACC-257,> 100 µM (inactive)
same,GI50,SR,> 100 µM (inactive)
same,GI50,MOLT-4,> 100 µM (inactive)
same,GI50,DMS-114,> 100 µM (inactive)
same,GI50,COLO 205,> 100 µM (inactive)
same,GI50,A549,> 100 µM (inactive)
same,GI50,HCT-15,> 100 µM
same,GI50,DLD-1,> 100 µM (inactive)
same,GI50,DMS-273,> 100 µM (inactive)
same,GI50,SF-295,> 100 µM (inactive)
same,GI50,TK-10,> 100 µM (inactive)
same,GI50,K562,> 100 µM (inactive)
same,GI50,SK-MEL-5,> 100 µM (inactive)
same,GI50,LOX IMVI,> 100 µM (inactive)
same,GI50,KM12,> 100 µM (inactive)
same,GI50,SNB-78,> 100 µM (inactive)
same,GI50,SK-MEL-28,> 100 µM (inactive)
same,GI50,ACHN,> 100 µM (inactive)
same,GI50,786-0,> 100 µM (inactive)
same,GI50,SF-268,> 100 µM (inactive)
same,GI50,UACC-62,> 100 µM (inactive)
same,GI50,SF-539,> 100 µM (inactive)
same,GI50,SNB-75,> 100 µM (inactive)
same,GI50,NCI-H460,> 100 µM (inactive)
same,GI50,NCI-H23,> 100 µM (inactive)
same,GI50,LXFL 529,> 100 µM (inactive)
same,GI50,Malme-3M,> 100 µM (inactive)
same,GI50,SN12C,> 100 µM (inactive)
same,GI50,SNB-19,> 100 µM (inactive)
same,GI50,HT-29,> 100 µM (inactive)
same,GI50,XF498,> 100 µM (inactive)
same,GI50,HCT-116,> 100 µM (inactive)
same,GI50,CAKI-1,> 100 µM (inactive)
same,GI50,HL-60,> 100 µM (inactive)
same,GI50,A498,> 100 µM (inactive)
